Here are results for 21 compounds from ChEMBL document CHEMBL5150068, “Structure-Based Design of Tropane Derivatives as a Novel Series of CCR5 Antagonists with Broad-Spectrum Anti-HIV-1 Activities and Improved Oral Bioavailability” (J Med Chem, 2022).

“And” between values parts separate entries of the source, which are not always exact repeats. Identical values can stand only once.

The target of series [1] is C-C chemokine receptor type 5 (Homo sapiens, UniProt P51681). As to the kind of experiment: Antagonist activity at CCR5 (unknown origin) expressed in HEK293 cells co-expressing Galpha16 assessed as intracellular calcium change incubated for 15 mins by Fluo-4 AM calcium flux assay. Format: functional, cell-based. (In general: Calcium flux is commonly read through the fluorescence of an indicator in the cells.)

Series [2] has as its system Human immunodeficiency virus 1. In words: Antiviral activity against HIV-1 Ba-L infected in human TZM-bl cells measured after 48 hrs incubation by luciferase based analysis. Format: functional, organism-based. The following applies: Human immunodeficiency virus 1, Ba-L.
Series [3] can be described thus: Cytotoxicity against human TZM-bl cells incubated for 48 hrs by MTT assay. Format: toxicity, cell-based.
Series [4] in a line: in vitro. The following applies: human, TZM-bl cells.
Description: Therapeutic index, ratio of CC50 for human TZM-bl cells to EC50 for antiviral activity against HIV-1 Ba-L
The test system of series [5] is Human immunodeficiency virus 1. As to the kind of experiment: Antiviral activity against HIV-1 SF162 infected in human TZM-bl cells measured after 48 hrs incubation by luciferase based analysis. Format: functional, organism-based. The following applies: Human immunodeficiency virus 1, SF162, TZM-bl.
Series [6] deals with Human immunodeficiency virus 1. In words: Antiviral activity against HIV-1 YU-2 infected in human TZM-bl cells measured after 48 hrs incubation by luciferase based analysis. The format is functional, organism-based.
In series [7] the test system is Human immunodeficiency virus 1. In words: Antiviral activity against HIV-1 YU-2 (G140S/Q148H) infected in human TZM-bl cells measured after 48 hrs incubation by luciferase based analysis. Format: functional, organism-based. To be noted: Human immunodeficiency virus 1, YU-2 (G140S/Q148H).
Series [8] deals with Human immunodeficiency virus 1. In words: Antiviral activity against HIV-1 Ba-L infected in human HOS-CD4-CCR5 cells measured after 48 hrs incubation by ELISA based p24 antigen assay. To be noted: Human immunodeficiency virus 1, Ba-L. Format: functional, organism-based. For orientation: In an ELISA, binding on a coated surface is turned into a signal by an enzyme label.
Series [9] deals with Human immunodeficiency virus 1. In words: Antiviral activity against HIV-1 Ba-L infected in human PM1 cells measured after 48 hrs incubation by ELISA based p24 antigen assay. Format: functional, organism-based. The following applies: Human immunodeficiency virus 1, Ba-L, PM1, 48 h.
In series [10] the test system is Human immunodeficiency virus 1. In words: Antiviral activity against HIV-1 IIIB infected in human TZM-bl cells measured after 48 hrs incubation by luciferase based analysis. Format: functional, organism-based. The following applies: Human immunodeficiency virus 1, IIIB.
Series [11] deals with Human immunodeficiency virus 1. As to the kind of experiment: Antiviral activity against HIV-1 KM018 clinical isolate infected in human PBMC measured after 48 hrs incubation by luciferase based analysis. The format is functional, organism-based. The following applies: Human immunodeficiency virus 1, KM018, PBMC.
In series [12] the test system is Human immunodeficiency virus 1. As to the kind of experiment: Antiviral activity against HIV-1 KIZ001 clinical isolate infected in human PBMC measured after 48 hrs incubation by luciferase based analysis. The format is functional, organism-based. The following applies: Human immunodeficiency virus 1, KIZ001, PBMC.
Series [13] deals with Human immunodeficiency virus 1. In words: Antiviral activity against HIV-1 KIZ006 clinical isolate infected in human PBMC measured after 48 hrs incubation by luciferase based analysis. The following applies: Human immunodeficiency virus 1, KIZ006, PBMC. Format: functional, organism-based.
[14] abbreviates: Human immunodeficiency virus 1, YU-2, TZM-bl, 48 h.

Sequence of C-C chemokine receptor type 5 (P51681 whole entry): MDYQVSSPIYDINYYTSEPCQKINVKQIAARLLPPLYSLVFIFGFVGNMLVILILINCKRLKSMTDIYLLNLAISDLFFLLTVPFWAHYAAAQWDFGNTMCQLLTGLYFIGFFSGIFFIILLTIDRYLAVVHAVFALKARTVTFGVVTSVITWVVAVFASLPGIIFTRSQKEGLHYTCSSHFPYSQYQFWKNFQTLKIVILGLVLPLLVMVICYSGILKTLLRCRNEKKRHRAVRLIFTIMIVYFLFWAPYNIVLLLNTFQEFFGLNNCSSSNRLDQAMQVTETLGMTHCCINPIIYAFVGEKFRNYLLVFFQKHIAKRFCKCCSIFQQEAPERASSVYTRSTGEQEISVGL

For orientation: IC50 means the point on the concentration scale where inhibition reaches its midpoint. By EC50 is commonly meant the concentration at which the effect is half-maximal. Read a high EC50 as a need for much substance. The CC50 is the concentration giving 50% cytotoxicity. For the compound `Cc1nnc(C(C)C)n1[C@@H]1C[C@H]2CC[C@@H](C1)N2CC[C@H](NC(=O)C1CCC(F)(F)CC1)c1cscn1`, the 50% inhibitory concentration (IC50) in [1] was determined as 67.4 nM. This compound showed an EC50 in series [2] of 0.078 µM. In [3], the CC50 at 48 h is > 200 µM. For the same compound, the selectivity ratio in [4] turned out to be 2560.

Turning to `Cc1nnc(C(C)C)n1[C@@H]1C[C@H]2CC[C@@H](C1)N2CC[C@H](NC(=O)C1CCCC1)c1ccc(C#N)s1`, the 50% inhibitory concentration (IC50) in [1] was > 10000 nM. Further, the EC50 in [2] was > 200 µM. In addition, in [3], the CC50 at 48 h was > 200 µM.

Take `COCc1nnc(C(C)C)n1[C@@H]1C[C@H]2CC[C@@H](C1)N2CC[C@H](NC(=O)C1CCC(F)(F)CC1)c1ccsc1`: the half-maximal inhibitory concentration (IC50) in series [1] turned out to be 2.49 nM. The compound further showed an EC50 in [2] of 0.03 µM. Half-maximal cytotoxicity in series [3] (CC50 at 48 h) was put at 72.9 µM. For the same compound, the selectivity ratio in [4] came out at 2430.

For `Cc1nnc(C(C)C)n1[C@@H]1C[C@H]2CC[C@@H](C1)N2CC[C@H](NC(=O)C1CCC(F)(F)CC1)c1ccc(C#N)s1`, in series [1], the IC50 is > 10000 nM. Besides, the EC50 in series [2] was > 200 µM. Besides, in series [3], the CC50 at 48 h is > 200 µM.

As to `CC(=O)N[C@@H](CCN1[C@@H]2CC[C@H]1C[C@H](n1c(C)nnc1C(C)C)C2)c1cccs1`, the IC50 in [1] turned out to be 15 nM. For the same compound, in series [3], the CC50 at 48 h is 40.5 µM. This compound had an EC50 in [5] of 1100 nM. Further, the selectivity ratio in series [4] worked out at 36.8.

On to `Cc1nnc(C(C)C)n1[C@@H]1C[C@H]2CC[C@@H](C1)N2CC[C@H](NC(=O)C1CCC(F)(F)CC1)c1ccsc1Cl`, for which the IC50 in series [1] amounted to 5.34 nM. Moreover, in series [2], a half-maximal response (EC50) required 0.54 µM. Moreover, in [3], the CC50 at 48 h is > 200 µM. Also, the selectivity ratio in series [4] is > 370.

`Cc1ccsc1[C@H](CCN1[C@@H]2CC[C@H]1C[C@H](n1c(C)nnc1C(C)C)C2)NC(=O)C1CCCC1`: the IC50 in series [1] turned out to be 18.9 nM. Moreover, the cytotoxic concentration (CC50) at 48 h in series [3] is > 200 µM. Besides, the EC50 in [6] (tzm-bl) is 29 nM and 78 nM. In series [4], the selectivity ratio was > 6900.

In the case of `CC(=O)Nc1cccc(C(=O)N[C@@H](CCN2[C@@H]3CC[C@H]2C[C@H](n2c(C)nnc2C(C)C)C3)c2cccs2)c1`, the 50% inhibitory concentration (IC50) in [1] was determined as 40.4 nM. This compound came in with a concentration for a half-maximal effect (EC50) in series [2] of 3.39 µM. The CC50 at 48 h in [3] is > 200 µM. For the same compound, the selectivity ratio in series [4] is > 59.

As for `Cc1nnc(C(C)C)n1[C@@H]1C[C@H]2CC[C@@H](C1)N2CC[C@H](NC(=O)C1CCCC1)c1ccsc1Cl`, in series [1], the IC50 is 4.36 nM. The EC50 in series [2] is 0.91 µM. The CC50 at 48 h in series [3] was > 200 µM. The selectivity ratio in series [4] was > 219.

Take `Cc1nnc(C(C)C)n1[C@@H]1C[C@H]2CC[C@@H](C1)N2CC[C@H](NC(=O)C(F)(F)F)c1csc2ccccc12`: the half-inhibitory concentration (IC50) in [1] is 680 nM. The cytotoxic concentration (CC50) at 48 h in series [3] is > 200 µM. For the same compound, the EC50 in series [5] is > 40000 nM.

In the case of `COc1ccc(S(N)(=O)=O)cc1C(=O)N[C@@H](CCN1[C@@H]2CC[C@H]1C[C@H](n1c(C)nnc1C(C)C)C2)c1cccs1`, the IC50 in [1] turned out to be 1380 nM. Also, the concentration for a half-maximal effect (EC50) in series [2] was > 200 µM. Moreover, the CC50 at 48 h in series [3] was > 200 µM.

On to `COC(=O)C1CCC(C(=O)N[C@@H](CCN2[C@@H]3CC[C@H]2C[C@H](n2c(C)nnc2C(C)C)C3)c2cccs2)CC1` (stereo partly specified), for which the IC50 in [1] is 11.8 nM. For the same compound, the CC50 at 48 h in series [3] is > 200 µM. The same compound had a concentration for a half-maximal effect (EC50) in series [6] (setting [14]) of 9 nM. For the same compound, in series [4], the selectivity ratio was > 22200.

`Cc1nnc(C(C)C)n1[C@H]1C[C@H]2CC[C@@H](C1)N2CC[C@H](NC(=O)C1CCCCC1)c1ccc(C#N)s1`: the IC50 in series [1] is > 10000 nM. For the same compound, in series [2], the EC50 was > 200 µM. The cytotoxic concentration (CC50) at 48 h in series [3] is > 200 µM.

For the compound `CNS(=O)(=O)c1cccc(C(=O)N[C@@H](CCN2[C@@H]3CC[C@H]2C[C@H](n2c(C)nnc2C(C)C)C3)c2cccs2)c1`, the IC50 in [1] worked out at 31.9 nM. In [2], this compound came in with an EC50 of 4.63 µM. The CC50 at 48 h in series [3] was > 200 µM. The selectivity ratio in [4] was > 43.2.

Consider `Cc1nnc(C(C)C)n1[C@@H]1C[C@H]2CC[C@@H](C1)N2CC[C@H](NC(=O)C1CCCCC1)c1ccc(F)s1`, for which the IC50 in [1] was found to be 9.33 nM. For the same compound, the CC50 at 48 h in [3] is > 200 µM. This compound displayed an EC50 in series [5] of 2660 nM. For the same compound, the selectivity ratio in series [4] was > 75.2.

Turning to `CC(=O)N[C@@H](CCN1C2CCC1CC(n1c(C)nc3c1CCN(C(=O)C(C)C)C3)C2)c1cccc(F)c1` (stereo partly specified), the half-inhibitory concentration (IC50) in series [1] was 18.9 nM. Further, in [7], the EC50 came out at 2.3 nM.

As to `Cc1csc([C@H](CCN2[C@@H]3CC[C@H]2C[C@H](n2c(C)nnc2C(C)C)C3)NC(=O)C2CCN(S(C)(=O)=O)CC2)c1`, the half-maximal inhibitory concentration (IC50) in [1] was 21.5 nM. Moreover, in series [3], the half-maximal cytotoxic concentration (CC50) at 48 h was > 200 µM. Moreover, the concentration for a half-maximal effect (EC50) in series [6] (setting [14]) worked out at 19 nM. Also, in [4], the selectivity ratio was > 10500.

Regarding `Cc1ccc([C@H](CCN2[C@@H]3CC[C@H]2C[C@H](n2c(C)nnc2C(C)C)C3)NC(=O)C2CCN(S(C)(=O)=O)CC2)s1`, in series [1], the half-maximal inhibitory concentration (IC50) amounted to 7.99 nM. The compound also showed an EC50 in [2] of 4.54 µM. For the same compound, the half-maximal cytotoxic concentration (CC50) at 48 h in series [3] was > 200 µM. In addition, the selectivity ratio in [4] was > 44.

As for `Cc1ccc([C@H](CCN2[C@@H]3CC[C@H]2C[C@H](n2c(C)nnc2C(C)C)C3)NC(=O)CC#N)s1`, the IC50 in series [1] was 72.7 nM. Also, in series [2], the EC50 is > 50 µM. Besides, the CC50 at 48 h in [3] was > 200 µM.

In the case of `Cc1ccc([C@H](CCN2[C@@H]3CC[C@H]2C[C@H](n2c(C)nnc2C(C)C)C3)NC(=O)Cn2cnnn2)s1`, the IC50 in [1] was 45.1 nM. Besides, in series [2], the 50% effective concentration (EC50) was > 50 µM. Besides, the CC50 at 48 h in series [3] is > 200 µM.

`Cc1nnc(C(C)C)n1[C@H]1C[C@H]2CC[C@@H](C1)N2CC[C@H](NC(=O)C1CCC(F)(F)CC1)c1ccccc1` [MARAVIROC]: the concentration for a half-maximal effect (EC50) was 0.015 µM in series [2]; 19.2 nM in series [5]; 2.96 nM in series [6] (setting [14]); 1.04 nM in series [8]; 0.34 nM in series [9]; > 1000 nM in series [10]. In addition, the 50% effective concentration (EC50) stood at 10.2 nM in [11], 14.9 nM in series [12], 92 nM in [13] and 2.18 nM in series [7].
